How the values were obtained:
[1] = target: T1, orexin-2 receptor (Homo sapiens, UniProt O43614); assay: Orexin radioligand binding assay (125I-orexin A, adherent recombinant cells); details: 125I-orexin A displacement, recombinant CHO-K1 or HEK-293 cells expressing the orexin receptor
T1 construct: expressed in transfected cells; host or cells: CHO-K1 (preferred) or HEK-293 recombinant clones
T1 sequence (O43614 1-444): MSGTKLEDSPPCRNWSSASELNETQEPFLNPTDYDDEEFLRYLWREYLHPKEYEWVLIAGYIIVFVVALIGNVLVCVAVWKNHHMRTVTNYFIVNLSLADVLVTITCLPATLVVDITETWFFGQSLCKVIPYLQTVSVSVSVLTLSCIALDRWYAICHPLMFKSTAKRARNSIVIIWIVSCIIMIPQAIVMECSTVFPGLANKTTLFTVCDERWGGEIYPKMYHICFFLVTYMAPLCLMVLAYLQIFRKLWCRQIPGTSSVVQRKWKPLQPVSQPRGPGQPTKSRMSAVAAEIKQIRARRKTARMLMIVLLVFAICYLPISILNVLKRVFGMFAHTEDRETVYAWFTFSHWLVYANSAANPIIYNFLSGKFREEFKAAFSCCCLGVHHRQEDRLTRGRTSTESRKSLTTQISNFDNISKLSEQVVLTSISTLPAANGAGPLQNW
Procedure: The reaction was quenched with 100 μL of 10% w/v bovine serum albumin, then the products were pre-purified using Waters Maxi-Clean C18 cartridges (Alltech, San Jose, Calif.). The mobile phase for the reverse phase separations (pre-purification and gradient HPLC) was 0.1% TFA, and the eluent was 0.1% TFA in acetonitrile. After removing the acetonitrile from the Maxi-Clean cartridge eluent by lyophilization, the labeled compound was further purified by gradient HPLC using a Vydac (Hesperia, Calif.) analytical C18 HPLC column. A gradient of 2% acetonitrile/min was used and fractions were collected every 0.75 min at a flow rate of 1.5 mL/min.
Radioligand binding assays were performed in opaque, white 96-well tissue culture plates pretreated with poly-D-lysine (Bio-Coat plates, Becton Dickinson, Franklin Lakes, N.J.). Cells expressing the orexin receptor were seeded at 30,000 cells/well in 100 μL/well Ham's F12 with 10% heat inactivated fetal bovine serum, penicillin/streptomycin and 800 mg/L G418. […] In preparation for the binding assay, the cell culture medium was aspirated away, and the cells were gently washed with 100 μL-well binding buffer (Dulbecco's phosphate buffered saline containing 0.1% w/v bovine serum albumin). […] The assay was terminated by aspirating the liquid from the wells, washing the wells with iced binding buffer, aspirating the wells dry, adding 50 μL/well scintillation cocktail (MicroScint 40, Packard Biosciences, Meriden Conn.), and counting the plate(s) in a Packard TopCount scintillation counter. […] Data were analyzed using GraphPad Prizm software to calculate Ki values.

[2] = target: T2, orexin receptors in PFSK-1 cells (Homo sapiens, UniProt O43614); assay: Intracellular calcium ion measurement (FLIPR, Fluo-3 AM) in PFSK-1 cells, antagonism of orexin agonist; assay type: cell-based
T2 construct: host or cells: PFSK-1
T2 sequence (O43614 1-444): T1 sequence (O43614 1-444)
Procedure: PFSK-1 cells were obtained from the American Type Culture Collection (CRL-2060; Manassas, Va.) and cultured as described by Fults et al. (J. Neuropathology Exp. Neurology, 1992, 51 (3):272-280). Cells were grown on 10 or 15 cm tissue culture dishes (Corning Inc., Corning, N.Y.) in RPMI medium 1640 containing 25 mM Hepes and L-glutamine (Gibco/InVitrogen, Carlsbad, Calif.) supplemented with 10% fetal bovine serum (HyClone, Logan, Utah), 50 u/mL penicillin G, and 50 u/mL streptomycin sulphate. Cells grown on 10 dishes were grown in 10 mL complete medium, and cells grown on 15 cm dishes were grown in 30 mL complete medium. Cells were passed every 3 to 5 days at a 1:5 dilution by aspirating away the medium, adding 2 mL/dish Gibco/Invitrogen Trypsin-EDTA solution, aspirating away the solution, incubating at room temperature 5 min, and dispersing the cells into fresh plates using fresh complete medium. Cells were then maintained in incubators set to maintain 37° C. and 5% CO2.
Agonist binding of orexin receptors elevates the intracellular free calcium ion concentration through the activation of a Gq protein and the opening of voltage-activated plasmalemmal calcium channels (see: A. N. Van Den Pol et al. J. Neurosci., 1998, 18(19):7962-7971). This effect was monitored using the fluorescent Ca^++ indicator Fluo-3 AM (TefLabs, Austin, Tex.) and the Molecular Devices (Sunnyvale, Calif.) FLIPR instrument.
PFSK-1 cells were removed from confluent tissue culture dishes with trypsin-EDTA as described above and plated in 96-well Packard Viewplates (Meriden, Conn.) at 50,000 cells/well in 100 μL/well complete medium. The next day the cells, which adhered to the Viewplates and grew to confluency, were loaded with the fluorescent dye. […] Test compounds were added to the wells in an isotonic, pH-neutral vehicle, such as Dulbecco's phosphate-buffered saline, and changes in intracellular calcium concentrations were measured using the FLIPR instrument.
The compounds were delivered to the test wells, and the compounds and the cells were incubated to allow binding. […] The control column for the antagonist screen included positive and negative controls to indicate the fluorescence of a full agonist response and the baseline.
Antagonism was analyzed by calculating KB and pKB values for compounds found to inhibit increases in intracellular Ca^++ concentrations of PFSK-1 cells. This was accomplished by determining the EC50 of orexin B and comparing the IC50 values determined from dilutions of antagonist compound(s), all on a single 96-well Viewplate of PFSK-1 cells loaded with Fluo-3 AM. […] The KB is then determined after Y.-C. […]

SMILES	Ki [1] [nM]	Kb [2] [nM]
CC1(C)OC[C@H](NC(=O)Nc2ccc(Cl)cc2Cl)[C@H](c2ccccc2)O1 [Example 5, 1-(2,4-Dichloro-phenyl)-3-((4S,5S)-2,2-dimethyl-4-phenyl-[1,3]dioxan-5-yl)-urea]	15	25.1
Cc1ccc(NC(=O)N[C@H]2COC(C)(C)O[C@H]2c2ccccc2)c(Br)c1 [Example 12, 1-(2-Bromo-4-methyl-phenyl)-3-((4S,5S)-2,2-dimethyl-4-phenyl-[1,3]dioxan-5-yl)-urea]	5	6.31
CC1(C)OC[C@H](NC(=O)Nc2ccc(Br)cc2Cl)[C@H](c2ccccc2)O1 [Example 1, 1-(4-Bromo-2-chloro-phenyl)-3-((4S,5S)-2,2-dimethyl-4-phenyl-[1,3]dioxan-5-yl)-urea]	9	25.1
Cc1ccc(NC(=O)N[C@H]2COC(C)(C)O[C@H]2c2ccccc2)c(C)c1 [Example 29, 1-(2,4-Dimethyl-phenyl)-3-((4S,5S)-2,2-dimethyl-4-phenyl-[1,3]dioxan-5-yl)-urea]	200	–
Cc1cc(NC(=O)N[C@H]2COC(C)(C)O[C@H]2c2ccccc2)ccc1Br [Example 9, 1-(4-Bromo-3-methyl-phenyl)-3-((4S,5S)-2,2-dimethyl-4-phenyl-[1,3]dioxan-5-yl)-urea]	87	–
CC1(C)OC[C@H](NC(=O)Nc2ccccc2-c2ccccc2)[C@H](c2ccccc2)O1 [Example 16, 1-Biphenyl-2-yl-3-((4S,5S)-2,2-dimethyl-4-phenyl-[1,3]dioxan-5-yl)-urea]	56	–
CC1(C)OC[C@H](NC(=O)Nc2ccccc2Cl)[C@H](c2ccccc2)O1 [Example 30, 1-(2-Chloro-phenyl)-3-((4S,5S)-2,2-dimethyl-4-phenyl-[1,3]dioxan-5-yl)-urea]	300	–
CC1(C)OC[C@H](NC(=O)Nc2ccc(Br)cc2Br)[C@H](c2ccccc2)O1 [Example 4, 1-(2,4-Dibromo-phenyl)-3-((4S,5S)-2,2-dimethyl-4-phenyl-[1,3]dioxan-5-yl)-urea]	10	5.01
CC1(C)OC[C@H](NC(=O)Nc2ccc(-c3cccnc3)cc2)[C@H](c2ccccc2)O1 [Example 38, 1-((4S,5S)-2,2-Dimethyl-4-phenyl-[1,3]dioxan-5-yl)-3-(4-pyridin-3-yl-phenyl)-urea]	320	–
